Experimental data taken from patent US5668146A, “Symmetrical bis-heteroarylmethoxyphenyliminoxyalkyl carboxylates as inhibitors of leukotriene biosynthesis” (Abbott Laboratories, priority 1996, dated 1997).

What was measured:
leukotriene biosynthesis [1] = settings: oral; Prasit, et al., 1991; cited from earlier work
[2] = tested on: 5-Lipoxygenase From Stimulated LTB4 Formation in Human Polymorphonuclear Leukocytes; test: Inhibition of calcium ionophore-induced LTB4 formation in human polymorphonuclear leukocytes (PMNL); type: cell-based; settings: calcium ionophore 8.3 μM, 10 min at 37° C., 15 min preincubation
Protocol: Inhibition of leukotriene biosynthesis was evaluated in an assay involving calcium ionophore-induced LTB4 expressed in human polymorphonuclear leukocytes (PMNL). Human PMNL isolated from heparinized (20 USP units/mL) venous blood (25 mL) obtained from healthy volunteers was layered over an equal volume of Ficoll-Hypaque Mono-Poly Resolving Medium (ICN Flow, Costa Mesa, Calif.) and centrifugated at 400×g for 40 minutes at 20° C. The PMNL was collected, erythrocytes lysed and washed 2× and suspended at 1.0×10^7 cells/mL in Earle's balanced salt solution with 17 mM Earle's HEPES. Aliquots of the cell suspension were preincubated with test compounds dissolved in DMSO (final concentration <2%) for 15 minutes and stimulated with calcium ionophore (final concentration 8.3 μM) for 10 minutes at 37° C. Incubations were stopped with the addition of two volumes of ice cold methanol followed by centrifuging the cell suspensions at 4° C. for 10 minutes at 450×g. The amount of LTB4 in the methanol extract was analyzed by enzyme-linked immunoassay or by HPLC analysis.

leukotriene biosynthesis [3] = test: Ionophore A-23187-Induced Rat Pleural Inflammation Model (in vivo leukotriene inhibition); settings: male rats, dosed one hour prior to intrapleural A23187 (20 μg), lavage after 30 min, eicosanoids by enzyme immunoassay
Protocol: Inhibition of leukotriene biosynthesis in vivo was evaluated using the Ionophore A-23187-Induced Rat Plueral Inflammation Model. Pleural inflammation was induced in male rats following the method of Rao, et al. (Rao, T. S., Currie, J. L., Shaffer, A. F., Isakson, P. C., Evaluation of 5-lipoxygenase Inhibitors, Zileuton, A78773 and ICI D-2 138 in an Ionophore (A-23187) Induced Pleural Inflammation Model in the Rat, Life Sciences, 53, 147 (1993)). Rats were dosed with experimental compounds in 0.2% methocel one hour prior to the intrapleural injection of the calcium ionophore, A23187. The rats where lightly anaesthetized with Pentrane (Abbott Laboratories) and injected intrapleurally with 0.5 ml of 2% ethanol in injectable saline (Abbott Laboratories) containing 20 μg of A23187 (Cal BioChem-Novabiochem). Thirty minutes later the animals were euthanised and the pleural cavities lavaged with ice cold saline (Abbott Laboratories). The lavage fluid was then added to ice cold methanol (final methanol concentration 30%) to lyse cells and precipitate protein. Eicosanoids were determined by enzyme immunoassay by standard methods.

Structure (SMILES)	orally active leukotriene biosynthesis inhibitor (in words) (leukotriene biosynthesis [1])	IC50 [2]	ED50 (leukotriene biosynthesis [3])
O=C(O)CSC(CCCc1ccc(Cl)cc1)c1ccc(OCc2ccc3ccccc3n2)cc1 (centres unmarked) [((4-(4-chlorophenyl)-1-(4-(2-quinolylmethoxy)phenyl)butyl)thio)acetic acid]	orally active leukotriene biosynthesis inhibitor	–	–
O=C(O)C=NOC(c1ccc(OCc2ccc3ccccc3n2)cc1)c1ccc(OCc2ccc3ccccc3n2)cc1 [Example 1, bis(4-(2-quinolylmethoxy)phenyl)methyliminoxyacetic acid]	–	68 nM	–
CC(=NOC(c1ccc(OCc2ccc3ccccc3n2)cc1)c1ccc(OCc2ccc3ccccc3n2)cc1)C(=O)O [Example 2, 2-(bis(4-(2-quinolylmethoxy)phenyl)methyliminoxy)propionic acid]	–	160 nM	2 mg/kg
CC(=NOC(c1ccc(OCc2ccc3cc(F)ccc3n2)cc1)c1ccc(OCc2ccc3cc(F)ccc3n2)cc1)C(=O)O [Example 6, 2-(bis(4-(6-fluoro-2-quinolylmethoxy)phenyl)methyliminoxy)propionic acid]	–	40 nM	–
CC(CCC(=O)O)=NOC(c1ccc(OCc2ccc3ccccc3n2)cc1)c1ccc(OCc2ccc3ccccc3n2)cc1 [Example 7, 4-(bis(4-(2-quinolylmethoxy)phenyl)methyliminoxy)pentanoic acid]	–	50 nM	1 mg/kg
CC(/C=C/C(=O)O)=NOC(c1ccc(OCc2ccc3ccccc3n2)cc1)c1ccc(OCc2ccc3ccccc3n2)cc1 [Example 8]	–	30 nM	–
